Assay results as given in US20260055088A1, “HETEROCYCLIC COMPOUND, METHOD FOR PREPARING SAME, AND PHARMACEUTICAL USE THEREOF” (Jiangsu Hengrui Pharmaceuticals Co., Ltd., priority 2022, published 2026).
Values joined by “and” are separate entries in the source; they are usually repeats but may differ in a detail not shown here. Equal entries are not always repeated. Where two headings read alike, the source gives them in different places.

Assays:
[1] = Pharmacokinetic evaluation in C57 mice (i.g./i.v.); type: in vivo; conditions: for Vd / AUC(0-t) / half-life / Cmax / bioavailability / CL/F: both sexes, mouse, plasma; for Vd: read-out: Apparent distribution volume Vss; for AUC(0-t): read-out: Area under curve AUC0-t; for half-life: read-out: Half-life T½ (converted); for Cmax: read-out: Plasma concentration Cmax; for bioavailability: oral, i.g. 2.0 mg/kg vs i.v. 1.0 mg/kg, read-out: Bioavailability F; for CL/F: read-out: Clearance rate CL/F; for Clearance rate CL/F: i.v.
Method: C57 mice were used as test animals. After intragastric (i.g.)/intravenous (i.v.) administration of the compounds of the present disclosure to C57 mice, the plasma concentrations of the compounds at different time points were determined by the LC/MS/MS method. The pharmacokinetic behaviors of the compounds of the present disclosure in C57 mice were studied, and their pharmacokinetic profiles were evaluated.
Compound 16 and compound 32.
Thirty-six C57 mice, with an equal number of males and females, provided by Vital River Laboratory Animal Technology Co., Ltd., with the production licenses SCXK (Zhejiang) 2019-0001 and SCXK (Beijing) 2019-0006. The mice were evenly divided into 4 groups of 9, with 3 mice per time point per group, and dosed by intragastric and intravenous administration.
Certain amounts of the test compounds were weighed out, and 5% DMSO+5% tween 80+90% normal saline was added to prepare 0.1 mg/mL colorless clear solutions (for the intragastric administration groups) and 0.1 mg/mL colorless clear solutions (for the intravenous administration groups).
The intragastric administration groups: The administration dose was 2.0 mg/kg, and the administration volume was 20 mL/kg.
The intravenous administration groups: The administration dose was 1.0 mg/kg, and the administration volume was 10 mL/kg.
The intragastric administration groups: 0.1-mL blood samples were collected from the orbit before administration and 0.25, 0.5, 1.0, 2.0, 4.0, 6.0, 8.0, 11.0, and 24.0 h after administration, placed into EDTA-K2 anticoagulation test tubes, and centrifuged at 10,000 rpm for 1 min (4° C.), and the plasma was separated within 1 h and stored at −80° C. before analysis. The procedures from the blood collection to the centrifugation were performed under ice-bath conditions.
The intravenous administration groups: Blood samples were collected before administration and 5 min and 0.25, 0.5, 1.0, 2.0, 4.0, 8.0, 11.0, and 24 h after administration and were treated in the same way as those collected from the intragastric administration groups.
Determination of the plasma concentrations of the test compounds in C57 mice after the compounds were administered at different concentrations: Compound 16: A 20-μL sample of the C57 mouse plasma collected at each time point after administration was taken, and 200 μL of acetonitrile containing 100 ng/mL camptothecin (internal standard) was added to each sample to precipitate protein. The mixture was vortexed for 5 min and centrifuged at 3700 rpm for 10 min. 50 μL of the supernatant was taken, and 100 μL of water was added. The mixture was vortexed for 5 min, and 1 μL of the mixture was taken for LC/MS/MS analysis. Compound 32: A 20-μL sample of the C57 mouse plasma collected at each time point after administration was taken, and 200 μL of acetonitrile containing verapamil (internal standard, 20 ng/mL) was added to each sample to precipitate protein. The mixture was vortexed for 5 min and centrifuged at 3700 rpm for 10 min. 90 μL of the supernatant was taken, and 90 μL of water was added. The mixture was vortexed for 5 min, and 0.1 μL of the mixture was taken for LC/MS/MS analysis.

[2] = test system: rat incision pain model; assay: Analgesic efficacy in rat incision pain model (mechanical pain threshold); type: in vivo, SD rats; conditions: i.g./one dose; for Pain threshold: rat incision pain model, 5 h after administration; for Percent increase in threshold: vs. vehicle control
Method: To evaluate the analgesic efficacy of the compounds of the present disclosure in inhibiting pain in rats of a rat incision pain model.
The compounds of Example 16 and Example 32.
Test animals: SD rats, purchased from Beijing Vital River Laboratory Animal Technology Co., Ltd. (license number: SCXK (Zhejiang) 2019-0001), weighing about 180 g on purchase.
Housing conditions: 5 animals/cage, a 12/12-hour light/dark cycle, a constant temperature of 23±1° C. with humidity at 50 to 60%, ad libitum access to food and water.
After acclimatization, the SD rats were grouped as follows:
(§1) Nine SD rats, weighing 170-190 g, were selected for this study. The mechanical pain threshold was measured using an electronic aesthesiometer. Then an incision pain surgery was performed. During the surgery, after the rats were anesthetized with Zoletil (Zoletil-50, 250 mg, diluted with normal saline to 50 mL after being dissolved, injected at a dose of 2 mL per 200 g of body weight), a 1 cm long incision was made in the middle of the plantar surface of the left hind paw using a No. 10 scalpel blade, cutting through the skin and fascia, and the incision was closed using 3-0 sterile silk sutures. The injured area was disinfected with penicillin, and the animals were returned to their original place to recover overnight. After the overnight recovery, oral gavage administration was performed. Five hours after administration (about 24 h after surgery), the mechanical pain threshold was measured using an electronic aesthesiometer.
Data were recorded using Excel statistical software: The averages were calculated using avg; the SD values were calculated using STDEV; the SEM values were calculated using STDEV/SQRT (the number of animals per group). Plotting was performed using GraphPad Prism software. Statistical analysis of the data was performed using one-way ANOVA and t-test.
Percent increase in threshold (%)=[(Gt−G0)/G0]×100(%), where Gt is the plantar pain threshold of the administration group, and G0 is the plantar pain threshold of the vehicle group.

[3] = Effect on body weight in rat incision pain model; type: in vivo, SD rats; conditions: i.g./one dose
Method: as §1
The analgesic efficacy of the compound of Example 16 in the rat incision pain model is shown in FIG. 3 and Table 7, and its effect on body weight is shown in FIG. 4. The analgesic efficacy of the compound of Example 32 in the rat incision pain model is shown in FIG. 5 and Table 7, and its effect on body weight is shown in FIG. 6.

SMILES | Vd ([1]; iv, 1.0 mg/kg) [L/kg] | AUC(0-t) ([1]; iv, 1.0 mg/kg) [ng·h/mL] | half-life ([1]; iv, 1.0 mg/kg) [h] | Cmax ([1]; iv, 1.0 mg/kg) [ng/mL] | bioavailability [1] [%] | AUC(0-t) ([1]; po, i.g., 2.0 mg/kg) [ng·h/mL] | CL/F ([1]; po, i.g., 2.0 mg/kg) [mL/min/kg] | half-life ([1]; po, i.g., 2.0 mg/kg) [h] | Cmax ([1]; po, i.g., 2.0 mg/kg) [ng/mL] | Clearance rate CL/F ([1]; 1.0 mg/kg) [mL/min/kg] | Pain threshold ([2]; 50 mpk) | Pain threshold ([2]; 100 mpk) | Pain threshold ([2]; 200 mpk) | Percent increase in threshold ([2]; 50 mpk) [%] | Percent increase in threshold ([2]; 100 mpk) [%] | Percent increase in threshold ([2]; 200 mpk) [%] | Effect on body weight of rats [3] | Pain threshold ([2]; 30 mpk) | Percent increase in threshold ([2]; 30 mpk) [%]
CO/N=C(\N)c1cc(NC(=O)[C@@H]2O[C@@](C)(C(F)(F)F)[C@@H](C)[C@H]2c2ccc(F)c(F)c2OC)ccn1 [Example 16] | 9.97 | 718 | 8.1 | 377 | 87.2 | 1250 | 24.4 | 7.5 | 266 | 21.1 | 10.8 gf and 10.8 ± 0.5 gf | 14.9 gf and 14.9 ± 1.5 gf | 22.3 gf and 22.3 ± 1.8 gf | 7 | 49 | 122 | did not influence the body weight of rats |  | 
COc1c([C@H]2[C@H](C(=O)Nc3ccnc(/C(N)=N/O)c3)O[C@@](C)(C(F)(F)F)[C@H]2C)ccc(F)c1F [Example 32] | 3.93 | 947 | 3.3 | 616 | 82.6 | 1560 | 21.2 | 3.2 | 260 | 16.1 |  | 22.3 gf and 22.3 ± 1.3 gf | 22.4 gf and 22.4 ± 2.5 gf |  | 114 | 114 | did not influence the body weight of rats | 12.0 gf and 12.0 ± 0.9 gf | 15
